In patent US9486422B2, “Small molecule inhibitors of Mcl-1 and the uses of thereof” (THE REGENTS OF THE UNIVERSITY OF MICHIGAN, priority 2011, dated 2016):
Like-named read-outs stand apart in the source and are kept apart here.

How the values were obtained:
Mcl-1 = Mcl-1 (Homo sapiens, UniProt Q07820); assay: FP-based binding assay, Mcl-1; details: for Ki: read-out: Mcl-1 Ki ± SD; for binding to Mcl-1, result in words: FP assay
Bcl-w = target: T1, Bcl-w (Homo sapiens, UniProt Q92843); assay: FP-based binding assay, Bcl-w; details: competitive FP, FAM-BID 2 nM, protein 40 nM; read-out: Bcl-w Ki ± SD
T1 sequence (Q92843 1-155): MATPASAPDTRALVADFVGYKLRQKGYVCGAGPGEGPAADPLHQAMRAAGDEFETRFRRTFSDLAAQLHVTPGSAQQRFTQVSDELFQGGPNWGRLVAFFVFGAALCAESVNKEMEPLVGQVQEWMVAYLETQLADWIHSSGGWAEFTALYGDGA

A1/Bfl-1 = target: T2, A1/Bfl-1 (Homo sapiens, UniProt Q16548); assay: FP-based binding assay, A1/Bfl-1; details: read-out: A1/Bfl-1 Ki ± SD
T2 sequence (Q16548 1-151): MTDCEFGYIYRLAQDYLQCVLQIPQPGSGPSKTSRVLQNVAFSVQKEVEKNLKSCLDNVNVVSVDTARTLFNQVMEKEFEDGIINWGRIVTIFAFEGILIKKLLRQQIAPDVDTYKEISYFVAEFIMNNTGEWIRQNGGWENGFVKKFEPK

Bcl-xL = Bcl-xL (Homo sapiens, UniProt Q07817, DEL45-85); assay: FP-based binding assay, Bcl-xL; details: read-out: Bcl-xL Ki ± SD
Sequence of Bcl-xL (Q07817 other isoform, or with tags, fused parts or gaps DEL45-85): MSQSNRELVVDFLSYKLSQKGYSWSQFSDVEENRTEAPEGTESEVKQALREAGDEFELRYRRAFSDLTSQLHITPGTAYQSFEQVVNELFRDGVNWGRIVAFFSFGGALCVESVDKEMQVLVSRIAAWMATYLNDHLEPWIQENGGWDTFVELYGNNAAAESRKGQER

[1] = competitive FP, Flu-BID 2 nM, Mcl-1 90 nM, read-out: Mcl-1 IC50 ± SD
[2] = competitive FP, Ki calculated from IC50

Sequence of Mcl-1 (Q07820 171-327): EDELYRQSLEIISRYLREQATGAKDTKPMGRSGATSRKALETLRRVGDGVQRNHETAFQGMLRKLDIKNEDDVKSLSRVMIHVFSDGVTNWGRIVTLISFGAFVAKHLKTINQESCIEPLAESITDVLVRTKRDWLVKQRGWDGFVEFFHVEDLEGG

| SMILES | IC50 (Mcl-1; [1]) [µM] | Ki (Mcl-1; [2]) [µM] | further results |
| --- | --- | --- | --- |
| O=C(O)CSc1cc(NS(=O)(=O)c2ccccc2)c2ccccc2c1O [Compound 2, 2-((1-Hydroxy-4-(phenylsulfonamido)naphthalen-2-yl)thio)acetic acid] | 13 ± 1.62 |  | Ki (Mcl-1): 3.56 ± 0.45 µM |
| O=C(O)CSc1cc(NS(=O)(=O)c2ccccc2Br)c2ccccc2c1O [Compound 11, 2-((4-(2-Bromophenylsulfonamido)-1-hydroxynaphthalen-2-yl)thio)acetic acid] | 16.2 ± 3.12 |  | Ki (Mcl-1): 4.42 ± 0.86 µM |
| O=S(=O)(Nc1ccc(O)c2ccccc12)c1ccccc1 [Compound 27, N-(4-Hydroxynaphthalen-1-yl)benzenesulfonamide] | > 100 | > 25 | binding to Mcl-1, result in words (Mcl-1): abolished binding |
| CC(C)c1ccc(S(=O)(=O)Nc2cc(SCC(=O)O)c(O)c3ccccc23)cc1 [Compound 5] |  | 1.06 ± 0.17 | IC50 (Mcl-1; read-out: Mcl-1 IC50 ± SD): 3.92 ± 0.63 µM |
| O=C(O)CCSc1cc(NS(=O)(=O)c2ccc3ccccc3c2)c2ccccc2c1O [Compound 34, 3-((1-Hydroxy-4-(naphthalene-2-sulfonamido)naphthalen-2-yl)thio)propanoic acid] | 4.2 ± 1.25 | 1.13 ± 0.34 |  |
| O=C(O)CSc1cc(NC(=O)c2ccc(Br)cc2)c2ccccc2c1O [Compound 23, 2-((4-(4-Bromobenzamido)-1-hydroxynaphthalen-2-yl)thio)acetic acid] | > 100 | > 25 |  |
| O=C(O)CSc1cc(NS(=O)(=O)c2ccc(C(=O)O)cc2)c2ccccc2c1O [Compound 20] | 17.4 | 4.76 |  |
| O=C(O)CSc1cc(NS(=O)(=O)c2ccccc2-c2ccccc2)c2ccccc2c1O [Compound 16, 2-((4-([1,1′-Biphenyl]-2-ylsulfonamido)-1-hydroxynaphthalen-2-yl)thio)acetic acid] | 7.47 ± 1.47 |  | Ki (Bcl-w): 4.41 ± 0.39 µM; Ki (A1/Bfl-1): 17.3 ± 0.56 µM; Ki (Bcl-xL): 48.1 ± 3.28 µM; fold improved binding to Mcl-1 compared to 2 (Mcl-1): 2 fold; Ki (Mcl-1): 2.03 ± 0.41 µM |
| O=C(O)CSc1cc(NS(=O)(=O)c2cc3ccccc3s2)c2ccccc2c1O [Compound 12, 2-((4-(Benzo[b]thiophene-2-sulfonamido)-1-hydroxynaphthalen-2-yl)thio)acetic acid] |  | 1.54 ± 0.32 | IC50 (Mcl-1): 5.66 ± 1.15 µM |
| O=C(O)CSc1cc(NS(=O)(=O)c2ccc(-c3ccc(Cl)cc3)cc2)c2ccccc2c1O [Compound 17, 2-((4-(4′-Chloro-[1,1′-biphenyl]-4-ylsulfonamido)-1-hydroxynaphthalen-2-yl)thio)acetic acid] | 0.68 ± 0.14 | 0.17 ± 0.04 |  |
| Cc1ccc(S(=O)(=O)Nc2cc(SCC(=O)O)c(O)c3ccccc23)cc1 [Compound 3] | 11.5 ± 0.78 | 3.13 ± 0.22 |  |
| CCc1ccc(S(=O)(=O)Nc2cc(SCC(=O)O)c(O)c3ccccc23)cc1 [Compound 4] | 5.73 ± 1.34 | 1.55 ± 0.37 |  |
| O=C(O)CSc1cc(NS(=O)(=O)c2ccc(Cl)cc2)c2ccccc2c1O [Compound 8, 2-((4-(4-Chlorophenylsulfonamido)-1-hydroxynaphthalen-2-yl)thio)acetic acid] | 3.08 ± 0.35 |  | Ki (Mcl-1): 0.82 ± 0.1 µM |
| O=C(O)CSc1cc(NS(=O)(=O)Cc2ccc(Cl)cc2)c2ccccc2c1O [Compound 25, 2-((4-((4-Chlorophenyl)methylsulfonamido)-1-hydroxynaphthalen-2-yl)thio)acetic acid] | 19.1 ± 1.31 | 5.23 ± 0.36 |  |
| COc1c(SCC(N)=O)cc(NS(=O)(=O)c2ccc(Br)cc2)c2ccccc12 [Compound 4v, 2-((4-(4-Bromophenylsulfonamido)-1-methoxynaphthalen-2-yl)thio)acetamide] |  | > 25 | binding to Mcl-1, result in words (Mcl-1): loss of binding |
| CCOc1ccc(S(=O)(=O)Nc2cc(SCC(=O)O)c(O)c3ccccc23)cc1 [Compound 19] | 50.1 ± 4.15 | 13.7 ± 1.14 |  |
| O=C(O)CCSc1cc(NS(=O)(=O)c2cccc3ccccc23)c2ccccc2c1O [Compound 35] | > 50 | > 12.5 |  |
